Test results reported in paper PMC11206987, “Investigation of the Efficacy of Benzylidene-3-methyl-2-thioxothiazolidin-4-one Analogs with Antioxidant Activities on the Inhibition of Mushroom and Mammal Tyrosinases” (Molecules, 2024).
Like-named read-outs stand apart in the source and are kept apart here.

How the values were obtained:
[1] = system: B16F10 cells; experiment: Cell cytotoxicity test (EZ-Cytox); assay type: cell-based, murine; settings: 2.5–20 µM, 48 and 72 h
Method: Because analogs 1–3 and 5 exerted potent mushroom tyrosinase inhibitory activities, their effects on anti-melanogenic and cellular tyrosinase activities were evaluated in B16F10 murine cells. Prior to examining their cellular activity, their cell viabilities were investigated. Cell viability was evaluated at 48 and 72 h after treatment with five different concentrations of analogs.
The effect on B16F10 cytotoxicity was assessed following a previously described method. Cells (1 × 10^4 cells/well of a 96-well plate) were cultivated for 24 h with 5% CO2 at 37 °C. The cells were exposed to the BMTTZD analogs (test concentrations: 20, 10, 5, 2.5, and 0 µM) and cultivated with 5% CO2 at 37 °C for 72 h. An EZ-Cytox solution (10 µL; EZ-500, DoGenBio, Seoul, Republic of Korea) was exposed to each well, and the plate was cultivated for 2 h. Cell viability was calculated from the well absorbance measured at 450 nm utilizing a reader (VersaMax®).

[2] = biological target: mushroom tyrosinase (Agaricus bisporus, UniProt C7FF04); experiment: Kinetic study of mushroom tyrosinase inhibition (Lineweaver–Burk and Dixon plots); assay type: biochemical; settings: substrate L-dopa 0.5–16 mM
Method: The initial rate of dopachrome generation was examined at various BMTTZD analog concentrations (0, 1.5, 3, and 6 µM for analog 1; 0, 2, 4, and 8 µM for analogs 2 and 5; and 0, 0.05, 0.1, and 0.2 µM for 3) with 0.5, 1, 2, 4, 8, or 16 mM L-dopa as substrates using mushroom tyrosinase. Plotting the reciprocal of the dopachrome formation rate against the inverse of the L-dopa concentration produced Lineweaver–Burk plots (Figure 2). Each Lineweaver–Burk plot created four straight lines with different slopes. For analogs 1 and 3, the four straight lines met at a point on the y-axis, whereas for analogs 2 and 5, the four straight lines converged at a point in the second quadrant.
The Dixon plots produced lines that met in the second quadrant. The x-coordinate of the convergence position represents the inhibition constant (Ki) of the ligand.
Lineweaver–Burk (L-B) plots were acquired for the kinetic analysis of analogs against mushroom tyrosinase as previously described. In brief, 10 µL of a solution of DMSO and BMTTZD analogs 1–3 or 5 (final concentrations: 0, 1.5, 3, and 6 µM for analog 1; 0, 2, 4, and 8 µM for analogs 2 and 5; and 0, 0.05, 0.1, and 0.2 µM for analog 3) in each well of a 96-well plate was mixed with 20 µL of aqueous mushroom tyrosinase solution (200 units/mL) and 170 µL of an aqueous substrate mixture (various concentrations of L-dopa (final concentrations: 16, 8, 4, 2, 1 and 0.5 mM) and 17.2 mM sodium phosphate buffer (pH 6.5)). During incubation (15 min at 37 °C), the increase in the well absorbance (ΔOD475/min) was calculated at 1 min intervals utilizing a VersaMax® reader.

[3] = DPPH radical scavenging activity assay; settings: 500 µM
Method: First, the ability of BMTTZD analogs 1–8 to scavenge DPPH radicals was examined using L-ascorbic acid (vitamin C; positive control). All samples were tested at 500 µM.
The ability of the BMTTZD analogs to scavenge DPPH radicals was evaluated as previously reported. To each well of a 96-well plate containing analogs 1–8 (5 mM in […]; 20 µL) was added a DPPH solution (0.2 mM in methanol; 180 µL). The mixture was kept in a place without light for 30 min at 25°C to generate DPPH radicals. The well absorbance at 517 nm was measured utilizing a VersaMax® reader. The ability of the analogs to remove DPPH radicals was compared to that of vitamin C.

[4] = ABTS+ radical scavenging activity assay; settings: 100 µM
Method: Second, the ability of BMTTZD analogs to scavenge ABTS^+ radicals was examined. ABTS^+ radicals were obtained via the oxidation of ABTS using potassium persulfate. All samples (Trolox (positive control) and 1–8) were tested at 100 µM.
The ability of the BMTTZD analogs to scavenge ABTS^+ radicals was assessed as previously described, with minor modifications. To a 50 mL tube were added 20 mL aqueous K2S2O8 solution (2.45 mM) and 20 mL aqueous ABTS solution (7 mM). The combined mixture was placed at 22 °C in a place without light for 17 h to generate the ABTS^+ radicals. For adequate absorbance control (0.70 ± 0.02 at 734 nm), methanol was added to the combined mixture. Test compounds (Trolox and analogs 1–8; 10 µL in 10% DMSO/90% EtOH [v/v] solution) were mixed with 90 µL ABTS^+ radical solution. After storage in a place without light for 2 min, the well absorbance at 734 nm was acquired for 10 min every 1 min by using a microplate reader (VersaMax®). All test compounds were tested at 100 µM. The activity of the analogs was compared to that of Trolox.

[5] = system: mushroom tyrosinase; experiment: Mushroom tyrosinase inhibition assay (dopachrome, 475 nm); assay type: biochemical; settings: for IC50: mushroom tyrosinase
Method: The ability of the BMTTZD analogs to inhibit mushroom tyrosinase was evaluated in the presence of L-dopa and L-tyrosine as previously described.

[6] = In vitro ROS scavenging activity assay (SIN-1, DCFH-DA/esterase); settings: test sample 40 µM; SIN-1 10 µM
Method: Third, the ability of analogs 1–8 to scavenge in vitro ROS was determined. Esterase was mixed with 2′,7′-dichlorodihydrofluorescein diacetate (DCFH-DA) to produce 2′,7′-dichlorodihydrofluorescein (DCFH). 3-Morpholinosydnonimine (SIN-1) generates ROS that react with DCFH, resulting in the formation of DCF (2′,7′-dichlorofluorescein). Therefore, the ability of analogs 1–8 to scavenge ROS was calculated by measuring the fluorescence of DCF with 10 µM SIN-1 and 40 µM test samples (Trolox (positive control) and analogs 1–8). […] The ability of analogs to scavenge ROS was examined as previously described. To a 15 mL tube were added DCFH-DA solution (1.25 mM; 50 µL), phosphate buffer (50 mM, 4.9 mL), and esterase (600 units/mL; 50 µL). The esterase–DCFH-DA solution was left in a dark place for 30 min. A 10 µL SIN-1 solution was added to each well of a black 96-well plate and mixed with phosphate buffer (180 µL) and Trolox (10 µL) or analogs 1–8 (10 µL). SIN-1, Trolox, and analogs 1–8 were treated at 10, 40, and 40 µM, respectively. After 5 min, 50 µL of the esterase–DCFH-DA solution was added to each well. The well fluorescence of DCF was acquired at 535 nm utilizing a microplate reader (Berthold Advances GmbH & Co., Bad Wildbad, Germany) using a 485 nm excitation wavelength. Trolox was used to compare ROS scavenging activity.

mushroom tyrosinase (Agaricus bisporus, UniProt C7FF04), sequence (C7FF04 1-392): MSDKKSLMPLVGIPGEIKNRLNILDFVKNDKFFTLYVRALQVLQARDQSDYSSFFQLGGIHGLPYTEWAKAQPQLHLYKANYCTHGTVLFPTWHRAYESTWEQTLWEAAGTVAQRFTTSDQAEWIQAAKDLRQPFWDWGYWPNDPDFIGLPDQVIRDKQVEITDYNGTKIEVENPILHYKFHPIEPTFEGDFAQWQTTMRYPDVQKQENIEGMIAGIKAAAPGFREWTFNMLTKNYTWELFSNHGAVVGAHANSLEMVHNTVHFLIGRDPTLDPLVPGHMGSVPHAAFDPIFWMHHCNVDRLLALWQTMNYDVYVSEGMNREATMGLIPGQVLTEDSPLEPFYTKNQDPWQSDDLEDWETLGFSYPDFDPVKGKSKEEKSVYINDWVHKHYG

For `CN1C(=O)/C(=C/c2ccc(O)c(O)c2)SC1=S` [Analog 2, (Z)-5-(3,4-Dihydroxybenzylidene)-3-methyl-2-thioxothiazolidin-4-one], the “cytotoxicity (cell viability)” value [1] was “significant cytotoxicity in a concentration-dependent manner, even at 2.5 µM”, the “type of tyrosinase inhibition (Lineweaver–Burk plots)” value [2] was “mixed-type inhibitors” and the “DPPH radical scavenging activity” value [3] was 93%. The “ABTS^+ radical scavenging activity” value [4] was 92%, the “tyrosinase inhibition, fold stronger than kojic acid” value ([5]; substrate L-dopa) was “four times stronger than kojic acid” and the IC50 ([5]; substrate L-dopa, read-out: IC50 (Mean ± SEM, µM) L-Dopa) was 6.18 ± 0.17 µM. It also gave an IC50 ([5]; substrate L-tyrosine, read-out: IC50 (Mean ± SEM, µM) L-Tyrosine) of 3.77 ± 0.47 µM.
With `Cc1c(C)c2c(c(C)c1O)CCC(C)(C(=O)O)O2` (stereo not drawn) [Trolox, reference compound] the “ABTS^+ radical scavenging activity” value [4] was 95% and the “effect on SIN-1-induced ROS levels” value [6] was “significantly decreased the SIN-1-induced ROS contents”.
